In patent publication US20170260178A1 (SPERO GYRASE, INC., priority 2012, published 2017):
Values after ≈ are worked out from the molar mass of the structure shown.

Key:
S. aureus (ATCC 29213) = assay: Bacterial assay: MIC against S. aureus; assay type: cell-based, Staphylococcus aureus; settings: Staphylococcus aureus, ATCC29213, read-out: minimal inhibitory concentration (MIC)
[1] = system: H. influenzae (ATCC 49247); assay: Bacterial assay: MIC against H. influenzae; assay type: cell-based; settings: Haemophilus influenzae, ATCC49247; H. influenzae ATCC 49247; read-out: minimal inhibitory concentration (MIC)
S. pyogenes (ATCC 51339) = assay: Bacterial assay: MIC against S. pyogenes; assay type: cell-based, Streptococcus pyogenes; settings: Streptococcus pyogenes, ATCC51339, read-out: minimal inhibitory concentration (MIC)

Compound | MIC (S. aureus (ATCC 29213)) [µg/mL] | MIC [1] [µg/mL] | MIC (S. pyogenes (ATCC 51339)) [µg/mL]
CCNC(=O)Nc1nc2cc(-c3cnc([C@@H](O)[C@H](C)O)nc3)cc(-c3ccccn3)c2s1 (relative stereo) [Compound 7, 1-[5-[2-[(1S*,2R*)-1,2-dihydroxypropyl]pyrimidin-5-yl]-7-(2-pyridyl)-1,3-benzothiazol-2-yl]-3-ethyl-urea] | ≤ 1 | ≤ 2 | ≤ 1
CCNC(=O)Nc1nc2cc(-c3ccc(C(O)C(F)(F)F)nc3)cc(-c3cc(CN4CCOCC4)ccn3)c2s1 (stereo not drawn) [Compound 108, 1-ethyl-3-[7-[4-(morpholinomethyl)-2-pyridyl]-5-[6-(2,2,2-trifluoro-1-hydroxy-ethyl)-3-pyridyl]-1,3-benzothiazol-2-yl]urea] | ≤ 1 | – | ≤ 1
CCNC(=O)Nc1nc2cc(-c3cnc(C(C)O)nc3)cc(-c3cc(N4CCC(C)(C(=O)O)CC4)ncn3)c2s1 (stereo not drawn) [Compound 109, 1-[6-[2-(ethylcarbamoylamino)-5-[2-(1-hydroxyethyl)pyrimidin-5-yl]-1,3-benzothiazol-7-yl]pyrimidin-4-yl]-4-methyl-piperidine-4-carboxylic acid] | 2 (≈ 3.55 µM) | – | ≤ 1
CCNC(=O)Nc1nc2cc(-c3cnc(C(C)(C)O)nc3)cc(-c3cc(N4CCC(C(=O)O)CC4)ccn3)c2s1 [Compound 110, 1-[2-[2-(ethylcarbamoylamino)-5-[2-(1-hydroxy-1-methyl-ethyl)pyrimidin-5-yl]-1,3-benzothiazol-7-yl]-4-pyridyl]piperidine-4-carboxylic acid] | 2 (≈ 3.56 µM) | – | ≤ 1
CCNC(=O)Nc1nc2cc(-c3cnc(C(C)O)nc3)cc(-c3cc(CN4CCC5(CC4)COC5)ccn3)c2s1 (stereo not drawn) [Compound 112, 1-ethyl-3-[5-[2-(1-hydroxyethyl)pyrimidin-5-yl]-7-[4-(2-oxa-7-azaspiro[3.5]nonan-7-ylmethyl)-2-pyridyl]-1,3-benzothiazol-2-yl]urea] | ≤ 1 | – | ≤ 1
CCNC(=O)Nc1nc2cc(-c3cnc(C(C)O)nc3)cc(-c3nccc(N4CCC(C)(C(=O)O)CC4)n3)c2s1 (stereo not drawn) [Compound 117, 1-[2-[2-(ethylcarbamoylamino)-5-[2-(1-hydroxyethyl)pyrimidin-5-yl]-1,3-benzothiazol-7-yl]pyrimidin-4-yl]-4-methyl-piperidine-4-carboxylic acid] | 16 (≈ 28.4 µM) | – | ≤ 1
CCNC(=O)Nc1nc2cc(-c3cnc(C(C)(C)O)nc3)cc(-c3ncc(CN4CCOCC4)cn3)c2s1 [Compound 120, 1-ethyl-3-[5-[2-(1-hydroxy-1-methyl-ethyl)pyrimidin-5-yl]-7-[5-(morpholinomethyl)pyrimidin-2-yl]-1,3-benzothiazol-2-yl]urea] | ≤ 1 | – | ≤ 1
CCNC(=O)Nc1nc2cc(-c3cnc(C4(O)CCN(C)CC4)nc3)cc(-c3ccccn3)c2s1 [Compound 128, 1-ethyl-3-[5-[2-(4-hydroxy-1-methyl-4-piperidyl)pyrimidin-5-yl]-7-(2-pyridyl)-1,3-benzothiazol-2-yl]urea] | ≤ 1 | – | ≤ 1
CCNC(=O)Nc1nc2cc(-c3cnc(C(C)(C)O)nc3)c(NCCOC)cc2s1 [Compound 150, 1-ethyl-3-[5-[2-(1-hydroxy-1-methyl-ethyl)pyrimidin-5-yl]-6-(2-methoxyethylamino)-1,3-benzothiazol-2-yl]urea] | 2 (≈ 4.65 µM) | – | 8 (≈ 18.6 µM)
CCNC(=O)Nc1nc2cc(-c3cnc(C(C)(C)O)nc3)cc(N3CCOCC3)c2s1 [Compound 151, 1-ethyl-3-[5-[2-(1-hydroxy-1-methyl-ethyl)pyrimidin-5-yl]-7-morpholino-1,3-benzothiazol-2-yl]urea] | 2 (≈ 4.52 µM) | – | 2 (≈ 4.52 µM)
CCNC(=O)Nc1nc2cc(-c3cnc(C(C)(C)O)nc3)cc(-c3cc(CN4CCC(F)(F)CC4)ccn3)c2s1 [Compound 156, 1-[7-[4-[(4,4-difluoro-1-piperidyl)methyl]-2-pyridyl]-5-[2-(1-hydroxy-1-methyl-ethyl)pyrimidin-5-yl]-1,3-benzothiazol-2-yl]-3-ethyl-urea] | ≤ 1 | – | ≤ 1
CCNC(=O)Nc1nc2cc(-c3cnc(C(C)(C)O)nc3)cc(-c3cc(CN4CCN(C)CC4)ccn3)c2s1 [Compound 159, 1-ethyl-3-[5-[2-(1-hydroxy-1-methyl-ethyl)pyrimidin-5-yl]-7-[4-[(4-methylpiperazin-1-yl)methyl]-2-pyridyl]-1,3-benzothiazol-2-yl]urea] | 2 (≈ 3.66 µM) | – | ≤ 1
CCNC(=O)Nc1nc2cc(-c3cnc(C4(O)CN(C(=O)OC(C)(C)C)C4)nc3)cc(-c3ccccn3)c2s1 [Compound 162, tert-butyl 3-[5-[2-(ethylcarbamoylamino)-7-(2-pyridyl)-1,3-benzothiazol-5-yl]pyrimidin-2-yl]-3-hydroxy-azetidine-1-carboxylate] | ≤ 1 | – | ≤ 1
CCNC(=O)Nc1nc2cc(-c3cnc(C(C)(C)O)nc3)cc(-c3cc(CN4C[C@@H](C)O[C@@H](C)C4)ccn3)c2s1 [Compound 164, 1-[7-[4-[[(2R,6S)-2,6-dimethylmorpholin-4-yl]methyl]-2-pyridyl]-5-[2-(1-hydroxy-1-methyl-ethyl)pyrimidin-5-yl]-1,3-benzothiazol-2-yl]-3-ethyl-urea] | ≤ 1 | – | ≤ 1
CCNC(=O)Nc1nc2cc(-c3cnc(C4(O)CCNCC4)nc3)cc(-c3ccccn3)c2s1 [Compound 174, 1-ethyl-3-[5-[2-(4-hydroxy-4-piperidyl)pyrimidin-5-yl]-7-(2-pyridyl)-1,3-benzothiazol-2-yl]urea] | 8 (≈ 16.8 µM) | – | 2 (≈ 4.21 µM)
CCNC(=O)Nc1nc2cc(-c3cnc(C(C)(C)O)nc3)c(OC)cc2s1 [Compound 176, 1-ethyl-3-[5-[2-(1-hydroxy-1-methyl-ethyl)pyrimidin-5-yl]-6-methoxy-1,3-benzothiazol-2-yl]urea] | ≤ 1 | – | ≤ 1
CCNC(=O)Nc1nc2cc(-c3cnc(C(C)(C)O)nc3)c(F)cc2s1 [Compound 177, 1-ethyl-3-[6-fluoro-5-[2-(1-hydroxy-1-methyl-ethyl)pyrimidin-5-yl]-1,3-benzothiazol-2-yl]urea] | ≤ 1 | – | 2 (≈ 5.33 µM)
CCNC(=O)Nc1nc2cc(-c3cnc(C(C)(C)O)nc3)c(OCC3CC3)cc2s1 [Compound 182, 1-[6-(cyclopropylmethoxy)-5-[2-(1-hydroxy-1-methyl-ethyl)pyrimidin-5-yl]-1,3-benzothiazol-2-yl]-3-ethyl-urea] | ≤ 1 | – | ≤ 1
CCNC(=O)Nc1nc2cc(-c3cnc(C(C)(C)O)nc3)c(OCCOC)cc2s1 [Compound 183, 1-ethyl-3-[5-[2-(1-hydroxy-1-methyl-ethyl)pyrimidin-5-yl]-6-(2-methoxyethoxy)-1,3-benzothiazol-2-yl]urea] | ≤ 1 | – | ≤ 1
CCNC(=O)Nc1nc2cc(-c3cnc(C(C)(C)O)nc3)c(OCCO)cc2s1 [Compound 186, 1-ethyl-3-[6-(2-hydroxyethoxy)-5-[2-(1-hydroxy-1-methyl-ethyl)pyrimidin-5-yl]-1,3-benzothiazol-2-yl]urea] | 4 (≈ 9.58 µM) | – | 2 (≈ 4.79 µM)
CCNC(=O)Nc1nc2cc(-c3cnc(C(C)(C)O)nc3)cc(-c3cc(CN4CC[S+]([O-])CC4)ccn3)c2s1 [Compound 188, 1-ethyl-3-[5-[2-(1-hydroxy-1-methyl-ethyl)pyrimidin-5-yl]-7-[4-[(1-oxo-1,4-thiazinan-4-yl)methyl]-2-pyridyl]-1,3-benzothiazol-2-yl]urea] | ≤ 1 | – | ≤ 1
CCNC(=O)Nc1nc2cc(-c3cnc(C(C)(C)O)nc3)cc(-c3cc(CN4CCS(=O)(=O)CC4)ccn3)c2s1 [Compound 191, 1-[7-[4-[(1,1-dioxo-1,4-thiazinan-4-yl)methyl]-2-pyridyl]-5-[2-(1-hydroxy-1-methyl-ethyl)pyrimidin-5-yl]-1,3-benzothiazol-2-yl]-3-ethyl-urea] | ≤ 1 | – | ≤ 1
CCNC(=O)Nc1nc2cc(-c3cnc(C(C)(C)O)nc3)c(OCc3ccc(OC)c(OC)c3)cc2s1 [Compound 192, 1-[6-[(3,4-dimethoxyphenyl)methoxy]-5-[2-(1-hydroxy-1-methyl-ethyl)pyrimidin-5-yl]-1,3-benzothiazol-2-yl]-3-ethyl-urea] | ≤ 1 | – | ≤ 1
CCNC(=O)Nc1nc2cc(-c3cnc(C(C)O)nc3)c(OCC3CCCO3)cc2s1 (stereo not drawn) [Compound 193, 1-ethyl-3-[5-[2-[1-hydroxyethyl]pyrimidin-5-yl]-6-(tetrahydrofuran-2-ylmethoxy)-1,3-benzothiazol-2-yl]urea] | ≤ 1 | – | 2 (≈ 4.51 µM)
CCNC(=O)Nc1nc2cc(-c3cncc(C(C)O)c3)cc(-c3ccccn3)c2s1 (stereo not drawn) [Compound 197, 1-ethyl-3-[5-[5-(1-hydroxyethyl)-3-pyridyl]-7-(2-pyridyl)-1,3-benzothiazol-2-yl]urea] | ≤ 1 | – | ≤ 1
[2H]C1([2H])OC([2H])([2H])C([2H])([2H])N(Cc2ccnc(-c3cc(-c4cnc(C(C)(C)O)nc4)cc4nc(NC(=O)NCC)sc34)c2)C1([2H])[2H] [Compound 198, 1-ethyl-3-[5-[2-(1-hydroxy-1-methyl-ethyl)pyrimidin-5-yl]-7-[4-[(2,2,3,3,5,5,6,6-octadeuteriomorpholin-4-yl)methyl]-2-pyridyl]-1,3-benzothiazol-2-yl]urea] | ≤ 1 | ≤ 2 | –
CCNC(=O)Nc1nc2cc(-c3cnc(C(C)(C)O)nc3)c(OCCN3CCOCC3)cc2s1 [Compound 199, 1-ethyl-3-[5-[2-(1-hydroxy-1-methyl-ethyl)pyrimidin-5-yl]-6-(2-morpholinoethoxy)-1,3-benzothiazol-2-yl]urea] | 2 (≈ 4.11 µM) | – | 2 (≈ 4.11 µM)
CCNC(=O)Nc1nc2cc(-c3cnc([C@@H](C)O)nc3)cc(-c3ccc(OC)cn3)c2s1 [Compound 202, 1-ethyl-3-[5-[2-[(1R)-1-hydroxyethyl]pyrimidin-5-yl]-7-(5-methoxy-2-pyridyl)-1,3-benzothiazol-2-yl]urea] | ≤ 1 | ≤ 2 | –
